{
  "source": "patent US20090011438A1",
  "about": "“Collagen VI and Cancer” (priority 2004, published 2009)",
  "assay_type_in_all_cases": "cell-based",
  "key": {"[1]": {"tested_on": "cyclin D1", "assay": "Cyclin D1 levels by western blot", "details": "MCF-7 cells, treated five hours, vs vehicle", "procedure": "FIG. 4 is graphs and a photograph showing that collagen VI stabilizes β-catenin and cyclin D1. […] A TCF/LEF luciferase reporter construct was transfected into MCF-7 cells and luciferase activity was analyzed after treatment either were vehicle (PBS; black bars), collagen VI (30 μg/ml; white bars) or collagen 1 (30 μg/ml; gray bars) in DME-BSA. […] The serum free medium used in the chase contained vehicle, collagen VI (30 μg/ml) or collagen 1 (30 μg/ml). After each time point, immunoprecipitations were performed for β-catenin and analyzed by SDS-PAGE followed by quantitation of β-catenin at each time point. […] Cells were then lysed and analyzed for cyclin D1 by western blot analysis. […] Panel D is a photograph of a western blot showing that collagen VI acts in part through NG2 in MCF-7 cells to stabilize cyclin D1. […] Results are shown as the MEAN±SEM in all cases.\nImmunoblotting. Separation of proteins by sodium dodecyl sulfate (SDS)-poly acrylamide gel electrophoresis (PAGE) fluorography, and immunoblotting were performed as previously described (Scherer et al., 1994). […]\nCollagen VI increases cyclin D1 protein stability through NG2/CSPG. […] MCF-7 cells pretreated with the αNG2/CSPG antibody were exposed to collagen VI protein, and cyclin D1 levels were monitored. […]"}, "[2]": {"tested_on": "β-catenin", "assay": "Metabolic labeling pulse/chase of β-catenin", "details": "MCF-7 cells, 30 μg/ml, chase 30 min to 2 hrs", "procedure": "(§1) FIG. 4 is graphs and a photograph showing that collagen VI stabilizes β-catenin and cyclin D1. […] A TCF/LEF luciferase reporter construct was transfected into MCF-7 cells and luciferase activity was analyzed after treatment either were vehicle (PBS; black bars), collagen VI (30 μg/ml; white bars) or collagen 1 (30 μg/ml; gray bars) in DME-BSA. […] The serum free medium used in the chase contained vehicle, collagen VI (30 μg/ml) or collagen 1 (30 μg/ml). After each time point, immunoprecipitations were performed for β-catenin and analyzed by SDS-PAGE followed by quantitation of β-catenin at each time point. […] MCF-7 cells were exposed for 3 hours to vehicle, human collagen VI (30 μg/ml) or collagen I (30 μg/ml). Cells were then lysed and analyzed for cyclin D1 by western blot analysis. […] Panel D is a photograph of a western blot showing that collagen VI acts in part through NG2 in MCF-7 cells to stabilize cyclin D1. […] Results are shown as the MEAN±SEM in all cases.\nMetabolic Labeling for β-catenin. MCF-7 cells, seeded in 6-well plates, were treated in methionine/cysteine deficient DMEM for 1 hour. […]\nCollagen VI prevents degradation of endogenous β-catenin in MCF-7 cells. […] To test this, β-catenin levels were monitored over the course of several hours after a pulse/chase reaction. […]"}, "[3]": {"tested_on": "Tcf/Lef", "assay": "TOP FLASH (Tcf/Lef) reporter luciferase assay", "details": "MCF-7 cells, 30 μg/ml, 12 hours, vs vehicle", "procedure": "as §1\nLuciferase Assays. […] Two days prior to the luciferase readout, cells were transiently transfected with the TOPFLASH (contains 4 Tcf/Lef binding elements) luciferase promoter construct as well as a thymidine kinase driven renilla luciferase construct as a transfection control vector (Promega, Madison, Wis.) (Albanese et al., 2003). […]"}},
  "data": [
    {"substance": "collagen I: Human collagen I obtained from Collaborative Biomedical Products; comparison protein", "values": [
      {"measurement": "cyclin D1 levels", "setting": "[1]", "value": "no significant change"},
      {"measurement": "degradation of 35S-labeled β-catenin", "setting": "[2]", "value": "marginal stabilization"},
      {"measurement": "induction of Tcf/Lef activity", "setting": "[3]", "value": "did not activate"}
    ]}
  ]
}
